Results: ChEMBL document CHEMBL4507268 (2021)

Columns and labels:
Conditions in all cases: Compound concentration 1.0 uM
[1] = molecular target: Cyclin-dependent kinase 5/CDK5 activator 1 (Homo sapiens) (UniProt Q00535+Q15078)
[2] = molecular target: Mast/stem cell growth factor receptor Kit (Homo sapiens) (UniProt P10721)
[3] = molecular target: T1, Ephrin type-A receptor 3 (Homo sapiens) (UniProt P29320)
T1 sequence (whole entry): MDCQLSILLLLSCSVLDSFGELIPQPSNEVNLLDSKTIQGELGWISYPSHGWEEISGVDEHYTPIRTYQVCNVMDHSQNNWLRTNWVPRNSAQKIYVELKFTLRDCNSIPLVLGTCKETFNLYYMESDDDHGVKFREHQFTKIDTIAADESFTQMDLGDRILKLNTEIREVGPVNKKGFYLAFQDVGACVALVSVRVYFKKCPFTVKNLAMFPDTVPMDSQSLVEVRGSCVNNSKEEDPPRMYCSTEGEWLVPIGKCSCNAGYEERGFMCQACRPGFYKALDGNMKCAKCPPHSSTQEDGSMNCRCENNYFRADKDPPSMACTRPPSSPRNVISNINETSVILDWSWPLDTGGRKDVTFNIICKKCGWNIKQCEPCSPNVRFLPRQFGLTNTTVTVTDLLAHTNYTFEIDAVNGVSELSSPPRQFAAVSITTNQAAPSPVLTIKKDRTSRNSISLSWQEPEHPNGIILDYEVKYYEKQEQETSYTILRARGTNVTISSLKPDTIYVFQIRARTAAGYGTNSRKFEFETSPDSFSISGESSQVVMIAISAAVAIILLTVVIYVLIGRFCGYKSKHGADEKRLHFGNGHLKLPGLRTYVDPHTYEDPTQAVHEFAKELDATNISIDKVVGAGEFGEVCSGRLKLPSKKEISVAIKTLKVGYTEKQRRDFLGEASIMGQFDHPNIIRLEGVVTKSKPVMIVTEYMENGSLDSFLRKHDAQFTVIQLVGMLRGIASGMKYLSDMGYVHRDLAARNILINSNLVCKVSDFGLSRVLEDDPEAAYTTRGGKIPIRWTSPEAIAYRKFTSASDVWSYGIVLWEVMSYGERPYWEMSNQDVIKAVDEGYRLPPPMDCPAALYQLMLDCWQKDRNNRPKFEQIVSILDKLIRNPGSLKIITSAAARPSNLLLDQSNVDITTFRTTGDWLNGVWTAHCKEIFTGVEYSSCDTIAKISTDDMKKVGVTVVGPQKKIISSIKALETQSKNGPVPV

[4] = molecular target: Insulin-like growth factor 1 receptor (Homo sapiens) (UniProt P08069)
[5] = molecular target: Mitogen-activated protein kinase 9 (Homo sapiens) (UniProt P45984)
[6] = molecular target: Maternal embryonic leucine zipper kinase (Homo sapiens) (UniProt Q14680)
[7] = molecular target: Serine/threonine-protein kinase PAK 4 (Homo sapiens) (UniProt O96013)
[8] = molecular target: Mitogen-activated protein kinase 11 (Homo sapiens) (UniProt Q15759)
[9] = molecular target: Wee1-like protein kinase (Homo sapiens) (UniProt P30291)
[10] = molecular target: Serine/threonine-protein kinase WNK1 (Homo sapiens) (UniProt Q9H4A3)
[11] = molecular target: DNA-dependent protein kinase catalytic subunit (Homo sapiens) (UniProt P78527)
[12] = molecular target: T2, Phosphatidylinositol 3-kinase C2 domain-containing subunit gamma (Homo sapiens) (UniProt O75747)
T2 sequence (whole entry): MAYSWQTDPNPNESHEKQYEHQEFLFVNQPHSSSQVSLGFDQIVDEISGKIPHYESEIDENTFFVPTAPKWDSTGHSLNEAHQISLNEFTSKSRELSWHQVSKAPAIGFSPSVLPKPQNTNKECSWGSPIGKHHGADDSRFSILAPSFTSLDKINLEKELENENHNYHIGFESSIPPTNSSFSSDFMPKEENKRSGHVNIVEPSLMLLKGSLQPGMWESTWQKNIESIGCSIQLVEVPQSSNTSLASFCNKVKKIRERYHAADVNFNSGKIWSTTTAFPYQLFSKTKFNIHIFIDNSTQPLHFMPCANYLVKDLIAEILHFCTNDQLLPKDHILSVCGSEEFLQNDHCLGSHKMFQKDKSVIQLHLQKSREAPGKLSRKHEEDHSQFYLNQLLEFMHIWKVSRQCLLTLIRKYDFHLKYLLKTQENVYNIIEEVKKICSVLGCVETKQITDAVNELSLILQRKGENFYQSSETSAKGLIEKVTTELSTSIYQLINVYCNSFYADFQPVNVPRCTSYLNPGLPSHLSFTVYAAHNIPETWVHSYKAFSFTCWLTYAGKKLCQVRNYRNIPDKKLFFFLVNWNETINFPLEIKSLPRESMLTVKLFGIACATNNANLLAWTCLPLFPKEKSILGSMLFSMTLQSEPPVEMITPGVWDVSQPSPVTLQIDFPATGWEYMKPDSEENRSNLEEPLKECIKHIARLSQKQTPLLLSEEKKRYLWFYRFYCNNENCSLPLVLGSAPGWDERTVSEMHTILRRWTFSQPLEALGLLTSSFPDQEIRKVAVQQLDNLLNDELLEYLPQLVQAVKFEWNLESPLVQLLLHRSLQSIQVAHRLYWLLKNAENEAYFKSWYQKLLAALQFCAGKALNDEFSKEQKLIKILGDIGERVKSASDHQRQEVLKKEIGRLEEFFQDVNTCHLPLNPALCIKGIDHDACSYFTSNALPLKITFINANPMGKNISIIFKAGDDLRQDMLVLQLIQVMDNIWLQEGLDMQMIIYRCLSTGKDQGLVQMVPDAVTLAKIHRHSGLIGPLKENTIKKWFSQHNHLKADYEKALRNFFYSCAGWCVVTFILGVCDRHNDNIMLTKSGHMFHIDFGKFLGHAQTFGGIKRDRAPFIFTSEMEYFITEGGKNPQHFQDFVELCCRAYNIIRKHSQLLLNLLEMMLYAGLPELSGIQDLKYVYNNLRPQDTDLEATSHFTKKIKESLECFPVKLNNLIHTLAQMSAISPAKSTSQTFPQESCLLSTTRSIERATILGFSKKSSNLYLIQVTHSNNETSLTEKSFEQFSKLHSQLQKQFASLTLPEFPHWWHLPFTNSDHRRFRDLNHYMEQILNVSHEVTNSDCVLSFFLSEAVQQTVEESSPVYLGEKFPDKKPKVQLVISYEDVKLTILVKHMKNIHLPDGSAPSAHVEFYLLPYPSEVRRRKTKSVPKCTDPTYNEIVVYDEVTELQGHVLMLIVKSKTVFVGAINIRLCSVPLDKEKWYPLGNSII

Measured: % residual kinase activity

Insulin-like growth factor 1 receptor (Homo sapiens), sequence (P08069 31-736 limits assumed): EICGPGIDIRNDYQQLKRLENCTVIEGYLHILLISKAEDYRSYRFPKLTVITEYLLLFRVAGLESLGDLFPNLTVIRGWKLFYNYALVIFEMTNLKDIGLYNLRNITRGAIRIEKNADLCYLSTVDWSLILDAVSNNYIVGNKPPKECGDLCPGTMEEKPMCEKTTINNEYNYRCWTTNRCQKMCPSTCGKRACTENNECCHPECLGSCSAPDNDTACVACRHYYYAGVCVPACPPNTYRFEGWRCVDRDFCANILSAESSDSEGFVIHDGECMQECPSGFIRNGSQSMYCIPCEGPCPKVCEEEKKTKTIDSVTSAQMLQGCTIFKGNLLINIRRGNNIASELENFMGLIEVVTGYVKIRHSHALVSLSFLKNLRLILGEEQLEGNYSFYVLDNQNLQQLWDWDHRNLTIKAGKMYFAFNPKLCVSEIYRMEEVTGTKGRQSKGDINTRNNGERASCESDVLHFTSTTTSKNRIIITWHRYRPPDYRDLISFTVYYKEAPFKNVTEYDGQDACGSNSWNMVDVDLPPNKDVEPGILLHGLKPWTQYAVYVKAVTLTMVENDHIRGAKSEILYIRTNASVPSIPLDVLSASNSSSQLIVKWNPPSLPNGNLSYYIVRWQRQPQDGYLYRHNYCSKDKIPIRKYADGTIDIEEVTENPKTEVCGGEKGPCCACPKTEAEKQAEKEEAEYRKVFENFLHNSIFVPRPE
Insulin-like growth factor 1 receptor (Homo sapiens), sequence (P08069 741-1367 limits assumed): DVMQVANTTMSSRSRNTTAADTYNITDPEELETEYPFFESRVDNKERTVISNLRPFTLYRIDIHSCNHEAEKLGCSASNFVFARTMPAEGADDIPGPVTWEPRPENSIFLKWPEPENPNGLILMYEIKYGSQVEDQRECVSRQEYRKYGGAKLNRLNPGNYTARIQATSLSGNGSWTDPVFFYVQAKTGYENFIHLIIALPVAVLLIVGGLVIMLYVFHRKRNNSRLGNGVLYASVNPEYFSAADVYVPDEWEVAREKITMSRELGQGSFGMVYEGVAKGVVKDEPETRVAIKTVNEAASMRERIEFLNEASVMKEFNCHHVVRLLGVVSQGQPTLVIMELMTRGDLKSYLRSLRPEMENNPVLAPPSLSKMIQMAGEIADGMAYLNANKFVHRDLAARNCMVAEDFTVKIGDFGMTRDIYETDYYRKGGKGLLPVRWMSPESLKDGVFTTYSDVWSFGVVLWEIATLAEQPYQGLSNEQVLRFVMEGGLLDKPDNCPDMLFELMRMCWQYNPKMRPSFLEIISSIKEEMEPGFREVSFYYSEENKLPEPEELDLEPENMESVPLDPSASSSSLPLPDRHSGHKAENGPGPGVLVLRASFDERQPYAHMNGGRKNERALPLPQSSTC
Serine/threonine-protein kinase WNK1 (Homo sapiens), sequence (Q9H4A3 whole entry, looked up): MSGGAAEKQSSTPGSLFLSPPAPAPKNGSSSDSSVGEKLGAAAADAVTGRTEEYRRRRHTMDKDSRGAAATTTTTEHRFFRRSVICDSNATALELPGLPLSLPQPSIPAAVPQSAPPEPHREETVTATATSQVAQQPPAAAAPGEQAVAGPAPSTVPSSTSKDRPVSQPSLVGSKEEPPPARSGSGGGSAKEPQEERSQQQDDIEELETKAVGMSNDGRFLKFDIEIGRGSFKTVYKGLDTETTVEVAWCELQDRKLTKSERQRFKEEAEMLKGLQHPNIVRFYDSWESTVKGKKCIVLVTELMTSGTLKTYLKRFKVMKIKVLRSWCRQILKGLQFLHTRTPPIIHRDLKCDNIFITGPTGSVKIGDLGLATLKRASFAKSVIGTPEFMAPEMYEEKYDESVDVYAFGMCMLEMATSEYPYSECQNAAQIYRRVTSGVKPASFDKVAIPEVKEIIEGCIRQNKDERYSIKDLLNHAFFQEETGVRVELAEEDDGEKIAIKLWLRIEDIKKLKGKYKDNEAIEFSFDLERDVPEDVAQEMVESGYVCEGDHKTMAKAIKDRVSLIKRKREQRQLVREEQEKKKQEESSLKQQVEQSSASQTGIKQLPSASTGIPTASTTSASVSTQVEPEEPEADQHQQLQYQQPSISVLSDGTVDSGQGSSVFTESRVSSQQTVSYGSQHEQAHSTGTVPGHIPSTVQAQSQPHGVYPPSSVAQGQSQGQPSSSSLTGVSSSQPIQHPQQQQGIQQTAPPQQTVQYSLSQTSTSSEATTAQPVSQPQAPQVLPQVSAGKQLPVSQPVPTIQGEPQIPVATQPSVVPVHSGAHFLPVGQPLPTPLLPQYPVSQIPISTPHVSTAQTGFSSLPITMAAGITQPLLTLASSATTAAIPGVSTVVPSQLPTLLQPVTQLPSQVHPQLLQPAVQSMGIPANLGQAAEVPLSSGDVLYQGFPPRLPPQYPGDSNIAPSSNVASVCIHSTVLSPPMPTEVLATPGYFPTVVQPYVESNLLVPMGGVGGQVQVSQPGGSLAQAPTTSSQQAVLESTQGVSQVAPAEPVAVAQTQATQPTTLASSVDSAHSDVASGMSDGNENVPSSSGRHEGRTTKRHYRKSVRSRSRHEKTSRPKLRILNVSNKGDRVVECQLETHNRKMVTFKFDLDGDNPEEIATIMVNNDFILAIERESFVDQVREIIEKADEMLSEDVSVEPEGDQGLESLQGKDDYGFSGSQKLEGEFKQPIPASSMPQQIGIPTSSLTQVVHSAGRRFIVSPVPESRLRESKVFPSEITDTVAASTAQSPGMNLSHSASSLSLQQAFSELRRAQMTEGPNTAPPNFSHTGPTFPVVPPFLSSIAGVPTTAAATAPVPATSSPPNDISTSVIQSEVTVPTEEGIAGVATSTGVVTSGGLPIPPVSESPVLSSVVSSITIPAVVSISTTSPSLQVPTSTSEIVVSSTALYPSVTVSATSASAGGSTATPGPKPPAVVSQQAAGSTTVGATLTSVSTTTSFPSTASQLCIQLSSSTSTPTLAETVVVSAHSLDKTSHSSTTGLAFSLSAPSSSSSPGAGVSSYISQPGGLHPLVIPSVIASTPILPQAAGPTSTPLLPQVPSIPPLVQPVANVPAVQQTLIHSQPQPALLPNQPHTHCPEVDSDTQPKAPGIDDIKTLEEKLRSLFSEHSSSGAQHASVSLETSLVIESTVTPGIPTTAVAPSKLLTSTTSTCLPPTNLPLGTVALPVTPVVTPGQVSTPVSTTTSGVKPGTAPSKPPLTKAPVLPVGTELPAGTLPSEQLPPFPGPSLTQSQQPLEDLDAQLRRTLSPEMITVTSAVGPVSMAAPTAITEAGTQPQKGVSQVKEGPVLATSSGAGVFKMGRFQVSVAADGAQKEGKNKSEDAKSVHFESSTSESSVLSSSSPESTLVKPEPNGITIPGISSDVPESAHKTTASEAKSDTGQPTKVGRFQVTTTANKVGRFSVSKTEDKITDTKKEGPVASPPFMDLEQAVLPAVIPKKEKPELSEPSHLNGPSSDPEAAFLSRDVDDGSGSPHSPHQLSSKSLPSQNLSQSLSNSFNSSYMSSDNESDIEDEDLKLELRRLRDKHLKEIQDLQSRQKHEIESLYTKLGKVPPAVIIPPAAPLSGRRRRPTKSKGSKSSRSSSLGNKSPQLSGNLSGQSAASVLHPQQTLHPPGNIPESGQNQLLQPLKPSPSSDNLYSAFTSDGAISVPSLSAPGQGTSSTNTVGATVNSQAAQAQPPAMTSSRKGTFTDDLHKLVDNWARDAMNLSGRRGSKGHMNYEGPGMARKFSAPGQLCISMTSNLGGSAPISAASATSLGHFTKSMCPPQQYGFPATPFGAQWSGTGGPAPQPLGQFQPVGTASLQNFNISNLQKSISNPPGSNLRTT
Mast/stem cell growth factor receptor Kit (Homo sapiens), sequence (P10721 whole entry): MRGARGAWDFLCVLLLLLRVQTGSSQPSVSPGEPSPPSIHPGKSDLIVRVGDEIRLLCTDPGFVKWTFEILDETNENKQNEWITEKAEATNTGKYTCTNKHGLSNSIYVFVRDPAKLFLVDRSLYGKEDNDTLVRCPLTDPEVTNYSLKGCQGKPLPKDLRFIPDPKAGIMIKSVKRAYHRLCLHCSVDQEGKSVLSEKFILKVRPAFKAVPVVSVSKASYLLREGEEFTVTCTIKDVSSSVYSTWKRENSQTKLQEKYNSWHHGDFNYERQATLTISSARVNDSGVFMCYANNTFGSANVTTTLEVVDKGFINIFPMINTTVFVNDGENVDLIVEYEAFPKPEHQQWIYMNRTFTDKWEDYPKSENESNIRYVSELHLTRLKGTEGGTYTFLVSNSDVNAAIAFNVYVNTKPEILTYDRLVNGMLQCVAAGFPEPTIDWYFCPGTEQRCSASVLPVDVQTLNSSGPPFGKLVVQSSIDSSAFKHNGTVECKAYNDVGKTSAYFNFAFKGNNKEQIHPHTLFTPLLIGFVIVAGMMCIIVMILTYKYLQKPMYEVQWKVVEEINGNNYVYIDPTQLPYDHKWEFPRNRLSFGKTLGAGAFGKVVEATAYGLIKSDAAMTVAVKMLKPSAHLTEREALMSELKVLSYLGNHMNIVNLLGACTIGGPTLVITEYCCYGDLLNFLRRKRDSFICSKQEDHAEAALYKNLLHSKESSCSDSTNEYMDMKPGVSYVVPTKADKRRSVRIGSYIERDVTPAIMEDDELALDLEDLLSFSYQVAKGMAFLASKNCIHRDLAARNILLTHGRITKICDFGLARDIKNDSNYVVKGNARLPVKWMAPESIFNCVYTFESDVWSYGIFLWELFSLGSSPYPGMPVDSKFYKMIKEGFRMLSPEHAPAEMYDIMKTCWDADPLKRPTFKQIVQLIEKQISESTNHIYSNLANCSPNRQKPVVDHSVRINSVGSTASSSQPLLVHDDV
Mitogen-activated protein kinase 11 (Homo sapiens), sequence (Q15759 whole entry): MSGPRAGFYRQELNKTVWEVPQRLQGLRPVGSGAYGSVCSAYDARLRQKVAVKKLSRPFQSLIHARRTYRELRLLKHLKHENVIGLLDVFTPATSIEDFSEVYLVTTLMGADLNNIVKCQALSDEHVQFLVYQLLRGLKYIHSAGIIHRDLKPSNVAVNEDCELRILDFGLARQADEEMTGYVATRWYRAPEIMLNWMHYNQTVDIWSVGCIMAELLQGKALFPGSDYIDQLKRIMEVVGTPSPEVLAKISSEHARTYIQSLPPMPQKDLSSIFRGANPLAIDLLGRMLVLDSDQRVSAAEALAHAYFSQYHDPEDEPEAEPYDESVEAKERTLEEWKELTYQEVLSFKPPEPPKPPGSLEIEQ

CN1CCN(c2cnc3c(C4CCN(C(=O)c5ccc(OC(F)(F)F)cc5N)CC4)ncnc3c2)CC1 [BAY-885]
inactive: [1] 106% | [2] 104% | [3] 86% | [4] 90% | [5] 104% | [6] 105% | [7] 101% | [8] 103% | [9] 108% | [10] 105% | [11] 102% | [12] 94%
